# Test results as given in patent publication US20200289522A1 (Shionogi & Co., Ltd., priority 2019, published 2020).
# Where two headings read alike, the source gives them in different places.
# Experiments:
# [1] = Plasma concentration after oral administration of prodrug Compound II-6 to rats under non-fasting conditions; type: in vivo
# Excerpt: FIGS. 1 and 2 show a result of measuring the plasma concentration of Compound III and
# Compound II-6, respectively, after oral administration of prodrug Compound II-6 to rats under non-fasting conditions.
# type B influenza virus = type: in vivo, human; conditions: for median time to improvement of influenza symptoms: BXM single dose 40/80 mg, oseltamivir 75 mg twice daily for 5 days
# influenza virus = type: in vivo, human
compound,measurement,setting,value
"COC(=O)OCOc1c2n(ccc1=O)N([C@@H]1c3ccccc3SCc3c1ccc(F)c3F)[C@@H]1COCCN1C2=O [II-6, Baloxavir marboxil]",concentration of Compound II-6 in plasma,"[1]; non-fasting, oral II-6 0.3, 1, 3 and 10 mg/kg, all time points 0.25 h to 24 h, below limit of quantification",< 0.500 ng/mL
same,conversion of prodrug to Compound III in vivo after administration,[1]; oral administration,metabolized promptly to Compound III
"CCOC(=O)C1=C[C@@H](OC(CC)CC)[C@H](NC(C)=O)[C@@H](N)C1 [oseltamivir, reference compound]",median time to improvement of influenza symptoms,type B influenza virus; patients infected with type B influenza virus,101.6 h
Baloxavir marboxil [II-6],primary endpoint (time to improvement of influenza symptoms) compared with placebo,influenza virus; BXM 40 or 80 mg single oral dose,statistically significant improvement
same,change from baseline in an influenza virus titer [log 10(TCID50/mL)] by time,"influenza virus; by day 2, vs placebo and oseltamivir",statistically significantly superior to placebo and oseltamivir
same,Difference between BXM and placebo in Time to Improvement of Influenza Symptoms,"influenza virus; difference of medians, generalized Wilcoxon test p-value <0.0001",−29.1
same,Time to Improvement of Influenza Symptoms,"influenza virus; median, BXM 40/80 mg single oral dose by body weight, N = 385, ITTI population",73.2
same,incidence of influenza-related complication: bronchitis,influenza virus; vs placebo,statistically signicantly superior to placebo
same,incidence of influenza-related complication: sinusitis,influenza virus; vs placebo,statistically signicantly superior to placebo
same,time to cessation of viral shedding by a virus titer,influenza virus; vs placebo and oseltamivir,statistically significantly superior to placebo and oseltamivir
same,"incidence of influenza-related complications, any complications","influenza virus; vs placebo, Fisher's exact test",statistically significantly superior to placebo
same,median time to improvement of influenza symptoms,type B influenza virus; […],74.6 h
same,"change from baseline in an influenza virus titer [log 10(TCID50/mL)] by time, type B virus","type B influenza virus; […], by day 2, vs placebo and oseltamivir",statistically significantly superior to placebo and oseltamivir
same,"median difference in time to improvement of influenza symptoms, BXM vs placebo","type B influenza virus; type B influenza virus, generalized Wilcoxon test p-value=0.0138",-26.0 h
same,"median difference in time to improvement of influenza symptoms, BXM vs oseltamivir","type B influenza virus; type B influenza virus, generalized Wilcoxon test p-value=0.0251",-27.1 h
